Reference: patent publication US6914045B2, “Glycopeptide antibiotics” (Wyeth Holdings Corporation, priority 2001, dated 2005)
In brackets after ≈: the same amount, converted by molar mass.

Key:
[1] = test system: Staphylococcus sp.; assay: in vitro antibacterial evaluation, MIC by broth dilution; assay type: cell-based; conditions: broth dilution, 18 hours at 35° C.
How it was run: (§1)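 Test organisms, which included recent clinical isolates resistant to methicillin, penicillin and/or vancomycin, were inoculated at 5×10^5 CFU/mL into Muller-Hinton II […] containing antibiotic at 64-0.06 μg/mL. Minimum inhibitory concentrations were then read as the lowest level inhibiting growth.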

[2] = test system: Escherichia coli; assay: as above; assay type: cell-based; conditions: 18 hours at 35° C.
How it was run: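 Following National Committee for Clinical Laboratory Standards recommendations (M7-A2), susceptibility was measured by dilution in Muller-Hinton II […]. Bacteria were seeded at 5×10^5 CFU/mL against compound concentrations from 64 down to 0.06 μg/mL.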

[3] = test system: Streptococcus sp.; assay: as above; assay type: cell-based; conditions: broth dilution, 18 hours at 35° C.
How it was run: as §1

[4] = test system: Enterococcus sp.; assay: as above; assay type: cell-based; conditions: broth dilution, 18 hours at 35° C.
How it was run: as §1

[5] = clinical pathology (serum clinical chemistry) in mice; assay type: in vivo; conditions: CD-1 mice, 20 mg/kg intravenously daily for 9 days, sera day 10
Description: 20-day-old CD-1 mice were divided into a vehicle control group (5 mice) and a treatment group (5 mice). Samples of glycopeptide antibiotics were administered at 20 mg/kg intravenously daily for 9 days.

[6] = anatomic pathology (histopathology of heart and kidney) in mice; assay type: in vivo; conditions: CD-1 mice, 20 mg/kg intravenously daily for 9 days, necropsy day 10, microscopic histopathology
Description: Samples of tissues from necropsied mice were formalin-fixed, paraffin-embedded, sectioned, stained with hematoxylin and eosin, and examined microscopically. Histopathologic findings were recorded. These findings were subjectively graded on a scale corresponding to slight, mild, moderate, marked and severe as compared to untreated controls.

CC(C)CC(=O)OC1C(OC2C(CO)OC(Oc3ccc(CC4NC(=O)C(C(C)c5ccccc5)NC(=O)CNC(=O)C(CO)NC(=O)C(CC5CNC(=N)N5C5OC(CO)C(O)C(O)C5O)NC(=O)C(CC5CNC(=N)N5)NC4=O)cc3)C(O)C2O)OC(CO)C(O)C1O (stereo not drawn) [Example 277b, Cyclo[3-(2-iminoimidazolidin-4-yl)alanyl-3-(3-hexogyranosyl-2-iminoimidazolidin-4-yl)-alanylserylglycyl-β-methylphenylalanyl-O-[4-O-[2-O-(3-methylbutanoyl)hexopyranosyl]-hexopyranosyl]tyrosyl]]
MIC Coagulase Negative Staphylococcus (GC 4547) [1]: >64 µg/mL
MIC Coagulase Negative Staphylococcus (GC 4548) [1]: >64 µg/mL
MIC Coagulase Negative Staphylococcus (GC 4549) [1]: >64 µg/mL
MIC Coagulase Negative Staphylococcus (GC 4551) [1]: >64 µg/mL
MIC Coagulase Negative Staphylococcus (GC 6257) [1]: >64 µg/mL
MIC Staphylococcus aureus (ATCC 29213) [1]: >64 µg/mL
MIC Staphylococcus aureus (GC 1131) [1]: >64 µg/mL
MIC Staphylococcus aureus (GC 3051) [1]: >64 µg/mL
MIC Staphylococcus aureus (GC 3053) [1]: >64 µg/mL
MIC Staphylococcus aureus (GC 4541) [1]: >64 µg/mL
MIC Staphylococcus aureus (GC 4542) [1]: >64 µg/mL
MIC Staphylococcus aureus (GC 4544) [1]: >64 µg/mL
MIC Staphylococcus aureus (GC 4545) [1]: >64 µg/mL
MIC Staphylococcus aureus-SMITH (GC 4543) [1]: >64 µg/mL
MIC Staphylococcus haemolyticus (GC 4546) [1]: >64 µg/mL
MIC Staphylococcus aureus (ATCC 29213) ([1]; strain ATCC 29213): >64 µg/mL
MIC Staphylococcus aureus (GC 1131) ([1]; strain GC 1131): >64 µg/mL
MIC Staphylococcus aureus (GC 3051) ([1]; strain GC 3051): >64 µg/mL
MIC Staphylococcus aureus (GC 3053) ([1]; strain GC 3053): >64 µg/mL
MIC Staphylococcus aureus (GC 4541) ([1]; strain GC 4541): >64 µg/mL
MIC Staphylococcus aureus (GC 4542) ([1]; strain GC 4542): >64 µg/mL
MIC Staphylococcus aureus (GC 4544) ([1]; strain GC 4544): >64 µg/mL
MIC Staphylococcus aureus (GC 4545) ([1]; strain GC 4545): >64 µg/mL
MIC Staphylococcus haemolyticus (GC 4546) ([1]; strain GC 4546): >64 µg/mL
MIC Coagulase Negative Staphylococcus (GC 4547) ([1]; strain GC 4547): >64 µg/mL
MIC Coagulase Negative Staphylococcus (GC 4548) ([1]; strain GC 4548): >64 µg/mL
MIC Coagulase Negative Staphylococcus (GC 4549) ([1]; strain GC 4549): >64 µg/mL
MIC Coagulase Negative Staphylococcus (GC 4551) ([1]; strain GC 4551): >64 µg/mL
MIC Coagulase Negative Staphylococcus (GC 6257) ([1]; strain GC 6257): >64 µg/mL
MIC Staphylococcus aureus-SMITH (GC 4543) ([1]; strain SMITH GC 4543): >64 µg/mL
MIC Escherichia coli (ATCC 25922) ([2]; Escherichia coli (ATCC 25922)): >64 µg/mL
MIC Escherichia coli (GC 4559) ([2]; Escherichia coli (GC 4559)): >64 µg/mL
MIC Escherichia coli (GC 4560) ([2]; Escherichia coli (GC 4560)): 32 µg/mL (≈ 23.7 µM)
MIC Streptococcus pneumoniae (ATCC 6301) ([3]; strain ATCC 6301): 64 µg/mL (≈ 47.5 µM)
MIC Streptococcus pneumoniae (GC 1894) ([3]; strain GC 1894): >64 µg/mL
MIC Streptococcus pyogenes (GC 4563) ([3]; strain GC 4563): >64 µg/mL
MIC Streptococcus agalactiae (GC 4564) ([3]; strain GC 4564): >64 µg/mL
MIC Streptococcus pneumoniae (GC 4565) ([3]; strain GC 4565): >64 µg/mL
MIC Enterococcus avium (GC 4558) ([4]; Enterococcus avium (GC 4558)): >64 µg/mL
MIC Enterococcus faecalis (ATCC 29212) ([4]; Enterococcus faecalis (ATCC 29212)): >64 µg/mL
MIC Enterococcus faecalis (GC 4553) ([4]; Enterococcus faecalis (GC 4553)): >64 µg/mL
MIC Enterococcus faecalis (GC 4554) ([4]; Enterococcus faecalis (GC 4554)): >64 µg/mL
MIC Enterococcus faecalis (GC 6189) ([4]; Enterococcus faecalis (GC 6189)): >64 µg/mL
MIC Enterococcus faecium (GC 2243) ([4]; Enterococcus faecium (GC 2243)): >64 µg/mL
MIC Enterococcus faecium (GC 4556) ([4]; Enterococcus faecium (GC 4556)): >64 µg/mL
MIC Enterococcus faecium (GC 4557) ([4]; Enterococcus faecium (GC 4557)): >64 µg/mL
MIC Enterococcus faecalis (ATCC 29212) ([4]; strain ATCC 29212): >64 µg/mL
MIC Enterococcus faecalis (GC 2242) ([4]; strain GC 2242): >64 µg/mL
MIC Enterococcus faecium (GC 2243) ([4]; strain GC 2243): >64 µg/mL
MIC Enterococcus faecalis (GC 2691) ([4]; strain GC 2691): >64 µg/mL
MIC Enterococcus faecalis (GC 3059) ([4]; strain GC 3059): >64 µg/mL
MIC Enterococcus faecalis (GC 4552) ([4]; strain GC 4552): >64 µg/mL
MIC Enterococcus faecalis (GC 4553) ([4]; strain GC 4553): >64 µg/mL
MIC Enterococcus faecalis (GC 4554) ([4]; strain GC 4554): >64 µg/mL
MIC Enterococcus faecium (GC 4556) ([4]; strain GC 4556): >64 µg/mL
MIC Enterococcus faecium (GC 4557) ([4]; strain GC 4557): >64 µg/mL
MIC Enterococcus avium (GC 4558) ([4]; strain GC 4558): >64 µg/mL
MIC Enterococcus faecalis (GC 6189) ([4]; strain GC 6189): >64 µg/mL
Clinical Chemistry (Day 10) % of Control, ALT [5]: +164%
Clinical Chemistry (Day 10) % of Control, AST [5]: +138%
Clinical Chemistry (Day 10) % of Control, BUN [5]: +113%
Anatomical Pathology (Day 10), Heart [6]: 0
Anatomical Pathology (Day 10), Kidney [6]: +
